Legend:
[1] = system: Vascular smooth muscle (BO54) cells; assay type: cell-based, baboon
[2] = system: Vascular smooth muscle (BO54) cells; assay type: cell-based, baboon; remark: listed apart in the source
[3] = system: Vascular smooth muscle cells
[4] = system: balloon traumatized left carotid artery; experiment: Periadventitial delivery of taxol crystals in pluronic gel, balloon traumatized rat carotid artery; assay type: in vivo, rats
Experimental: To further evaluate the efficacy of crystalline taxol to inhibit neointimal formation in rats, four groups of 5-6 adult male rats underwent balloon trauma of the left carotid artery followed immediately by periadventitial delivery of 1, 0.1, 0.01 or 0 mg of taxol crystals in 500 mg of a pluronic polymer in gel matrix. Fourteen days later, the rats were sacrificed, serum was collected and their carotid arteries were processed for histologic and morphometric analysis.

[5] = system: balloon traumatized left carotid artery; conditions: rat, in vivo
[6] = Biodistribution of 3H-cytochalasin B i.v. (radioactivity); assay type: in vivo, BALB/c mice
Experimental: ^3H-cytochalasin B (2 μg; 30 μCi/μg) was injected i.v. into BALB/c mice having urinary bladders that had been externally ligated. Animals were sacrificed at 15 minutes, 30 minutes, 2 hours or 16 hours post-injection. Organs were removed, blotted, weighed, air dried and assayed for radioactivity. Fifty −73% of the total injected dose was accounted for in the tissues sampled (blood, heart, brain, muscle, bone, lung, liver, spleen, stomach, kidney, intestines, and urinary bladder). Clearance of ^3H-cytochalasin B from the blood was extremely rapid with less than 1% of the injected dose in circulation by 15 minutes.

[7] = Human liver slices distribution and metabolism study (HPLC); assay type: in vitro ADME
Experimental: ^3H-cytochalasin B at a dose of 1.5 or 8 μg/ml was mixed with viable or non-viable human liver slices and media, and the amount of ^3H-cytochalasin B in media or tissue assessed by HPLC (Tables 8 and 9).

[8] = MTT activity in human liver slices after 24 hour exposure; assay type: cell-based
Experimental: The cytotoxity of ^3H-cytochalasin B and its subsequent metabolites was also assessed by evaluating dose dependent changes in mitochondrial function by monitoring 3-[4, 5-dimethylthiazol-2yl]-2, 5-diphenyltetrazolium bromide (MTT) activity following a 24 hour exposure of human liver slices to the test agent (Table 10).

[9] = Stability and metabolism in saline, human plasma and human whole blood (HPLC); assay type: in vitro ADME; conditions: 20 hours at 37° C.
Experimental: To determine the metabolism of ^3H-cytochalasin B in human blood, ^3H-cytochalasin B (8 μg/ml) was dissolved in saline; 1:1 dilution of saline and human plasma; or 1:1 dilution of saline and human whole blood.

[10] = system: balloon traumatized swine femoral arteries; experiment: Tissue distribution of crystalline 3H-cytochalasin B after local delivery; design: species or system Yorkshire crossbred swine; conditions: in vivo
Experimental: The in vivo tissue distribution of cytochalasin B administered in crystalline form was evaluated in balloon traumatized swine femoral arteries after local delivery. A femoral artery of a Yorkshire crossbred swine was balloon traumatized by overinflation and rotation of a Vascu-Flo™ Silicone embolectomy catheter. Balloon trauma was immediately followed by intravascular delivery of 10 μg/ml ^3H-cytochalasin B crystals (Sigma Chemical Co., St. Louis, Mo.) in saline (saturated) for three minutes under 1 atm of pressure. Blood flow was resumed in the artery for five minutes prior to sacrifice of the animal.

[11] = 1.5 μg/ml, Media/viable tissue, 1 h
[12] = 1.5 μg/ml, Media/viable tissue, 1 h at 37° C.
[13] = 1.5 μg/ml, Media/viable tissue, 4 h
[14] = 8 μg/ml, Media/boiled tissue, 4 h
[15] = 8 μg/ml, Media/boiled tissue, 24 h

CN[C@@H]1C[C@H]2O[C@@](C)([C@@H]1OC)n1c3ccccc3c3c4c(c5c6ccccc6n2c5c31)C(=O)NC4 [staurosporin]
minimum effective dose (MED), protein synthesis assay [1]: 100 ng/mL
minimum effective dose (MED), DNA assay [2]: 1 ng/mL
cytotoxicity grade at in vitro effective dosage [3]: 2

Cc1ccc(C(=O)Nc2ccc(S(=O)(=O)O)c3cc(S(=O)(=O)O)cc(S(=O)(=O)O)c23)cc1NC(=O)c1cccc(NC(=O)Nc2cccc(C(=O)Nc3cc(C(=O)Nc4ccc(S(=O)(=O)O)c5cc(S(=O)(=O)O)cc(S(=O)(=O)O)c45)ccc3C)c2)c1 [suramin]
DNA synthesis inhibition compared with protein synthesis inhibition [2]: to a greater extent than they inhibited protein synthesis

O=[N+]([O-])OCC(CO[N+](=O)[O-])O[N+](=O)[O-] [nitroglycerin]
DNA synthesis inhibition compared with protein synthesis inhibition [2]: to a greater extent than they inhibited protein synthesis

CC(=O)O[C@H]1C(=O)[C@@]2(C)[C@H]([C@H](OC(=O)c3ccccc3)[C@]3(O)C[C@H](OC(=O)[C@H](O)[C@@H](NC(=O)c4ccccc4)c4ccccc4)C(C)=C1C3(C)C)[C@]1(OC(C)=O)CO[C@@H]1C[C@@H]2O [taxol]
neointimal area and neointimal/medial ratio vs control ([4]; 0.01 mg): reduction in their neointimal area and neointimal/medial ratio
toxicity ([4]; 0.01 mg): no
neointimal area and neointimal/medial ratio vs control ([4]; 0.1 mg): reduction in their neointimal area and neointimal/medial ratio
toxicity ([4]; 0.1 mg): minimal
toxicity ([4]; 1.0 mg): limited
morphometry vs untreated controls [5]: statistically significantly larger luminal areas and no neointimal proliferation
post-surgical weight gain [5]: delay in post-surgical weight gain

CC(=O)O[C@@H]1/C=C\[C@@](C)(O)C(=O)[C@@H](C)C/C=C\[C@H]2[C@H](O)C(C)=C(C)[C@H]3C(Cc4ccccc4)NC(=O)[C@]132 (stereo partly shown) [cytochalasin C]
MED, DNA synthesis assay [2]: 0.01 µg/mL

^3H-cytochalasin B
injected dose in circulation ([6]; by 15 minutes): less than 1%
tissues with significant retention of 3H activity ([6]; mouse, in vivo): Only liver, skeletal muscle and intestines showed significant retention
total reactivity in the tissue [7]: less than 20%
total reactivity present in the media [7]: greater than 80%
% Metabolized of Extractable Activity [7, 11]: 43.0%
% Non extractable Activity [7, 11]: 0.5%
% Activity in Media [7, 12]: 84%
% Activity in Tissue [7, 12]: 16%
% Activity in Media [7, 13]: 84%
% Activity in Tissue [7, 13]: 16%
% Metabolized of Extractable Activity [7, 13]: 77.0%
% Metabolized of Extractable Activity ([7]; 1.5 μg/ml, Media/viable tissue, 24 h): 98.7%
% Metabolized of Extractable Activity ([7]; 8 μg/ml, Media Only, 1 h): 5%
% Metabolized of Extractable Activity ([7]; 8 μg/ml, Media Only, 24 h): 5%
% Non extractable Activity ([7]; 8 μg/ml, Media/boiled tissue, 1 h): 0.5%
% Extractable Activity [7, 14]: 99.0%
% Metabolized of Extractable Activity [7, 14]: 5%
% Non extractable Activity [7, 14]: 1%
% Activity in Media [7, 15]: 87%
% Activity in Tissue [7, 15]: 13%
% Metabolized of Extractable Activity [7, 15]: 5%
% Non extractable Activity [7, 15]: 1.3%
% Metabolized of Extractable Activity ([7]; 8 μg/ml, Media/viable tissue, 1 h): 24.2%
% Metabolized of Extractable Activity ([7]; 8 μg/ml, Media/viable tissue, 4 h): 59.4%
% Metabolized of Extractable Activity ([7]; 8 μg/ml, Media/viable tissue, 24 h): 98.0%
cytotoxicity of agent or its metabolites [8]: not cytotoxic
metabolism ([9]; 8 μg/ml in 1:1 saline and human plasma): not metabolized
metabolism ([9]; 8 μg/ml in 1:1 saline and human whole blood): metabolized by human whole blood
metabolism ([9]; 8 μg/ml in saline): not metabolized
tissue localization [10]: localized predominantly to the adventitia
